Source: paper PMC12700101 (2025)

Tests used:
[1] = test system: Dopamine DBS Cy3–BHQ-1 (Position 1/Adjacent) (DNA, aptamer) AAATACAACAAGAAAAAACTCTCGGGACGACGACCAGTTTGAAGGTTCGTTCGCAGGTGTGGAGTGACGTCGTCCC; assay: fluorescence melting; details: 1x PBS, 2 mM MgCl2; derived from two Tm (51.7 ± 0.1, 50.9 ± 0.1) of aptamer–displacement duplex; 50 µM dopamine, pH 8.0
[2] = test system: Dopamine MAB FAM–BHQ-1 (DNA, aptamer) ACGCCAGTTTGAAGGTTCGTTCGCAGGTGTGGAGTGACGT; assay: fluorescence melting; details: 1x PBS, 2 mM MgCl2; derived from two Tm (44.8 ± 0, 37.7 ± 0.1); 50 µM dopamine, pH 8.0
[3] = test system: Dopamine DBS Cy3/BHQ-1 (int.) (DNA, aptamer) AAATACAACAAGAAAAAACTCTCGGGACGACGCCAGTTTGAAGGTTCGTTCGCAGGTGTGGAGTGACGTCGTCCC; assay: fluorescence melting; details: 1x PBS, 2 mM MgCl2; pH 8.0; 50 µM dopamine; derived from two Tm (50.9, 50.4); displacement strand 1:4
[4] = test system: Dopamine DBS Cy3/BHQ-1 (term.) (DNA, aptamer) AAATACAACAAGAAAAAACTCTCGGGACGACGCCAGTTTGAAGGTTCGTTCGCAGGTGTGGAGTGACGTCGTCCC; assay: fluorescence melting; details: 1x PBS, 2 mM MgCl2; pH 8.0; 50 µM dopamine; derived from two Tm (51.2, 50.6); displacement strand 1:4
[5] = test system: Dopamine DBS FAM(+T)/BHQ-1 (int.) (DNA, aptamer, 6-FAM-modified dT (click, i6-FAMK) at 33) AAATACAACAAGAAAAAACTCTCGGGACGACGTCCAGTTTGAAGGTTCGTTCGCAGGTGTGGAGTGACGTCGTCCC; assay: fluorescence melting; details: 1x PBS, 2 mM MgCl2; pH 8.0; 50 µM dopamine; derived from two Tm (49.1, 49.3); displacement strand 1:4
[6] = test system: Dopamine DBS Cy3/Cy5 – No (position 3) (DNA, aptamer) AAATACAACAAGAAAAAACTCTCGGGACGACGACCAGTTTGAAGGTTCGTTCGCAGGTGTGGAGTGACGTCGTCCC; assay: fluorescence strand-displacement titration; details: 1x PBS, 2 mM MgCl2; apparent; pH 8.0, 25 °C; displaced 42-nt 3'-biotin strand without quencher; 565 nm readout
[7] = test system: Dopamine MAB FAM–BHQ-1 (DNA, aptamer) ACGCCAGTTTGAAGGTTCGTTCGCAGGTGTGGAGTGACGT; assay: fluorescence quenching titration (molecular aptamer beacon); details: 1x PBS, 2 mM MgCl2; apparent; pH 8.0, 25 °C
[8] = test system: Dopamine MAB BHQ-1–FAM (DNA, aptamer) ACGCCAGTTTGAAGGTTCGTTCGCAGGTGTGGAGTGACGT; assay: as above; details: 1x PBS, 2 mM MgCl2; apparent; pH 8.0, 25 °C

- Tm [1]: -0.8 °C
- Tm [2]: -7.1 °C
- Tm [3]: -0.5 °C
- Tm [4]: -0.6 °C
- Tm [5]: 0.2 °C
- Kd [6]: 9.9 ± 3.6 µM
- Kd [7]: 3.0 ± 0.1 µM
- Kd [8]: 5.3 ± 0.8 µM
SMILES: NCCc1ccc(O)c(O)c1
